Type in all cases: biochemical
One experiment concerns the target T1, FTase (Rattus norvegicus, UniProt Q02293+Q04631).
T1 construct: purchased JENA BIOSCIENCE
Description: In vitro FTase assay (K-Ras4B substrate, [3H]FPP). The essentials:
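FTase (50 nM) with 2 μM MBP-K-Ras4B and 0.4 μM [3H]-FPP in 50 mM Tris-HCl pH 7.5, 10 mM MgCl2, […], 5 mM DTT, 2.5% DMSO; 10 min at 30 °C. [3H]-farnesyl incorporation measured by TCA filter precipitation and scintillation counting.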

Another experiment concerns the target T2, GGTase-I (Rattus norvegicus, UniProt P53610+Q04631).
T2 construct: purchased JENA BIOSCIENCE
In words: In vitro GGTase-I enzyme assay (IC50, kinetics). As to conditions: for IC50: read-out: In vitro (enzyme assay) IC50, GGTase I. In short, it runs like this:
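Rat GGTase-I (50 nM) with 0.5 μM [3H]-GGPP and 2 μM MBP-RhoA in Tris-HCl pH 7.5, MgCl2, ZnCl2, DTT, 2.5% DMSO, 10 min at 30 °C; radiolabel incorporation by TCA filter binding and scintillation. Kinetics: 5 min reactions varying GGPP or RhoA at fixed other components.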

For another experiment, the target named is T3, RabGGTase (Rattus norvegicus, UniProt Q08602+Q08603).
T3 construct: purchased JENA BIOSCIENCE
T3 sequence (Q08602 1-567): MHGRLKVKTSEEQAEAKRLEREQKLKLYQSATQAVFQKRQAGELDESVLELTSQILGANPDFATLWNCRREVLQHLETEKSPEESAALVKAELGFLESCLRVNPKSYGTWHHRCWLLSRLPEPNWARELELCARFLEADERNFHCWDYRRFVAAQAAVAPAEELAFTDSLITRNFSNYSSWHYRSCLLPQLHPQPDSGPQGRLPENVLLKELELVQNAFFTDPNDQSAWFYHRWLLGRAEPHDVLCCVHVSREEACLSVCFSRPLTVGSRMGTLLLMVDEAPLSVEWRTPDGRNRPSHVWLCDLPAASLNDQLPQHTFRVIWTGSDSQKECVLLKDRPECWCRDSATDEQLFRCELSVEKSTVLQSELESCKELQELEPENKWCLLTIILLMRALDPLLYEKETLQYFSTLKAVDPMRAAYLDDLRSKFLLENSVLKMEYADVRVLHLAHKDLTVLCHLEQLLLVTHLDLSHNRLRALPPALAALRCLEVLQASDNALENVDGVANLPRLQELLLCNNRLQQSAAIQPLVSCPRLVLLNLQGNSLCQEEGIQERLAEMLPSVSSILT
T3 sequence (Q08603 1-331): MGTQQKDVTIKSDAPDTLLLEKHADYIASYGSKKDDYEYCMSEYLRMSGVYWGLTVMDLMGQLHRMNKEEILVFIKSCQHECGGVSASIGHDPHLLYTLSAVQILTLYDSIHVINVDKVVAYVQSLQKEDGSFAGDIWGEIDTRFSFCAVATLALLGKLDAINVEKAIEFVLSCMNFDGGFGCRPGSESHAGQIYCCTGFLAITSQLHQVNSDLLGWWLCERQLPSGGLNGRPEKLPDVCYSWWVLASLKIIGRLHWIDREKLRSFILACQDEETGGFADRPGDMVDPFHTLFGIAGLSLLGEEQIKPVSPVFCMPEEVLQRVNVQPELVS
In words: In vitro RabGGTase (GGTase-II) assay with REP-1. On the procedure: The GGTase-I assay was carried out using RhoA as a substrate protein, GGTase-I (JENA Bioscience) and [3H]geranylgeranyl pyrophosphate. Incubation was for 30 min at 37° C. GGTase-II (or RabGGTase) assay was carried out using YPTI as a substrate protein, GGTase-II (Calbiochem, San Diego, Calif.) plus REP1 (Calbiochem) and [3H]geranylgeranyl pyrophosphate. Incubation was for 30 min at 37° C. FIGS. 20D-20F show the three dimensional structure of GGTase I (D), FTsse (E) and GGTase II (F) which can be obtained from X-ray diffraction studies of protein crystals.
For RabGGTase assays, the reaction contained the following components in 20 μl; 0.625 μl of [^3H]-GGPP (0.7 μM), 25 nM RabGGTase, 0.6 μM REP-1, 0.6 μM purified Rab7 or Ypt1 protein, 40 mM HEPES (pH 7.5), 150 mM NaCl, 5 mM DTT, 3 mM MgCl2 and 0.3% CHAPS. Reactions were carried out for 20 min at 37° C. and the products were analyzed as described above for the GGTase-I reaction. Graphing and Michaelis-Menten analysis were performed using Prism version5 (GraphPad, San Diego Calif.).

Where [1] appears, read: concentration increased to 100,000 nM.

“Also recorded” adds a separate entry of the source. Where two headings read alike, the source gives them in different places.

In the case of `Cc1ccccc1S(=O)(=O)N1[C@@H](c2cccc(Cl)c2)C(C(=O)O)=CC[C@H]1c1ccc(Cl)cc1` [P3-E5], on FTase (P3-D9, P3-E5: concentration increased to 100 (unit not given)), the “inhibition of FTase activity (FIG. 16)” value is reported as “no inhibition of FTase activity”. For the same compound, the “inhibition of FTase activity” value at FTase (concentration increased to 50,000 nM) is “no significant inhibition”. In addition, at GGTase-I (FIGS. 20A-20C, varying concentrations), the “specificity among GGTase-I, FTase and GGTase-II” value was “specifically inhibit GGTase I”. Also, at GGTase-I (Michaelis-Menten analysis), the inhibition constant (Ki) was found to be 187 ± 13 nM. For the same compound, the IC50 on GGTase-I (Tables 5, 14) amounted to 313 nM. Besides, the “mode of GGTase-I inhibition with respect to GGPP” value at GGTase-I (varying GGPP, fixed RhoA) is “do not compete with GGPP; also recorded: uncompetitive inhibitors”. Besides, on GGTase-I (varying RhoA, fixed GGPP), the “mode of GGTase-I inhibition with respect to the protein substrate (RhoA)” value is listed as “compete with a substrate protein; also recorded: competitive inhibitors”. Besides, on RabGGTase (even at 50,000 nM), the “inhibition of RabGGTase” value is listed as “little inhibition”.
As to `Cc1ccccc1S(=O)(=O)N1C(c2ccc(Cl)cc2)C(C(=O)NC(Cc2ccccc2)C(N)=O)=CC1C(C)(C)C` (centres unmarked) [P61-A6], the “inhibition of FTase activity” value at FTase (setting [1]) was “No significant inhibition”. In addition, the IC50 at GGTase-I (Tables 3, 5, 7) turned out to be 1000 nM. Besides, on RabGGTase (setting [1]), the “inhibition of RabGGTase activity” value is reported as “No significant inhibition”.

Source of the values: patent US8815935B2, “Inhibitors of protein prenyltransferases” (The Regents of the University of California, priority 2008, dated 2014).
